Structures can show the parent of a compound that is named as a salt.

A short description of this data set: Pharmacokinetics following oral (PO) administration to male beagle dogs. The data set is classed as in vivo. The settings on record: single 30 mg/kg PO (free base equivalent). The protocol:
Male beagle dogs (3 in each treatment group) were administered orally 30 mg/kg of Compound (I) free base or mesylate salt of Compound (I) in a dose equivalent to 30 mg/kg of free base. The free base and the mesylate salt were suspended/dissolved in an appropriate volume of vehicle solution containing 0.5% hydroxypropyl methylcellulose (w/v) with 0.2% Tween 80 (v/v) in deionized water. The PO doses were administered into the stomach via syringe and gavage tube followed by a 5 mL water flush. Dose volumes were adjusted for the weight of the animal on the morning of dose administration. Blood samples were collected at 0, 0.5, 1, 2, 4, 6, 8, 10, 12, and 24 h postdose from an accessible vein with preference to the jugular vein. Blood samples were kept on ice until processing. All blood samples were centrifuged within 1 h of collection at 3200 RPM for 10 min at 5° C. Plasma samples were directly transferred into cluster tubes and stored at −20°±5° C. until shipment. […] Animals were fasted on the evening prior to dosing with food returned at 4 h postdose.

On to `C=CC(=O)Nc1ccc(F)c(Nc2nc(Nc3cnn(C)c3)ncc2-c2ccc(C(F)(F)F)cc2)c1` [Compound (I) free base, N-(4-fluoro-3-((2-((1-methyl-1H-pyrazol-4-yl)amino)-5-(4-(trifluoromethyl)phenyl)pyrimidin-4-yl)amino)phenyl)acrylamide], for which the “appearance of animals at dose administration and blood collection time points” value is given as “appeared normal”.
Regarding `C=CC(=O)Nc1ccc(F)c(Nc2nc(Nc3cnn(C)c3)ncc2-c2ccc(C(F)(F)F)cc2)c1` [mesylate salt of Compound (I)], under “0-24 h”, the “in vivo exposure (plasma concentration, FIG. 7)” value was “higher in vivo exposure”.

(Values after patent publication US20250282761A1, “SALT AND CRYSTAL FORMS OF AN EPIDERMAL GROWTH FACTOR RECEPTOR INHIBITOR” (Blueprint Medicines Corporation, priority 2022, published 2025).)
